From patent publication US20240287094A1, “NITROGEN-CONTAINING HETEROCYCLIC COMPOUND, PREPARATION METHOD THEREFOR, AND APPLICATION THEREOF IN MEDICINES” (Jiangsu Hengrui Pharmaceuticals Co., Ltd., priority 2021, published 2024)

Tests used:
Assay in all cases: Cell proliferation assay (CellTiter-Glo, intracellular ATP content)
Type in all cases: cell-based
DLD1 cells = details: DLD-1, 144 h; inhibition of proliferation, human colon cancer cells, 6 days incubation
Source text: (§1) The following method evaluates the inhibitory effect of the compounds of the present disclosure on the proliferation of DLD1, DLD1^BRCA2−/−, and MDA-MB-436 cells via IC50 by measuring the intracellular ATP content. The experimental method was briefly described as follows: • I. Experimental materials and instruments • 1. DLD1, human colon cancer cells (Cobioer, Nanjing, CBP60037) • 2. DLD1^BRCa2−/−, human BRCA2 gene knock-out colon cancer cells (Creative biogene, CSC-RT0015) • 3. MDA-MB-436, human breast cancer cells (ATCC, HTB-130) • 4. Fetal bovine serum (GIBCO, 10091-148) • 5. CellTite-Glo reagent (Promega, G^7573) • 6. 96-well cell culture plate (corning, 3903) • 7. Pancreatin (invitrogen, 25200-072) • 8. Microplate reader (BMG, PHERAsta) • 9. Cell counter (Countstar, Shanghai, IC1000) • II. Experimental procedures • DLD1 cells were cultured in an RPMI-1640 medium containing 10% FBS, and passaged 2-3 times a week in a passage ratio of 1:6 or 1:8. During passage, the cells were digested by pancreatin, transferred to a centrifuge tube, and centrifuged for 3 min at 1200 rpm. The supernatant was discarded, and a fresh medium was added to resuspend the cells. To a 96-well cell culture plate, 180 μL of the cell suspension was added at a density of 2.78×10^3 cells/mL. To peripheral wells of the 96-well plate, only 180 μL of complete medium was added.
(§2) The culture plate was incubated in an incubator for 24 h (37° C., 5% CO2).
(§3) The test samples were diluted to 2 mM in DMSO and serially 3-fold diluted to the 10th concentration. Blank and control wells were set. 5 μL of the serially diluted test compound solutions was added to 95 μL of fresh medium. 20 μL of the medium solution containing the compound described above was added to the plate. The plate was incubated in an incubator (37° C., 5% CO2) for 6 days. 90 μL of CellTiter-Glo reagent was added to each well of the 96-well cell culture plate. The plate was let stand for 5-10 min in the dark at room temperature. The chemiluminescence signals were read by a PHERAstar system, and the data were processed by GraphPad software.

DLD1^BRCA2−/− cells = details: 144 h; inhibition of proliferation, human BRCA2 gene knock-out colon cancer cells, 6 days incubation
Source text: as §1
(§4) DLD1^BRCA2−/− cells were cultured in an RPMI-1640 medium containing 10% FBS, and passaged 2-3 times a week in a passage ratio of 1:6 or 1:8. During passage, the cells were digested by pancreatin, transferred to a centrifuge tube, and centrifuged for 3 min at 1200 rpm. The supernatant was discarded, and a fresh medium was added to resuspend the cells. To a 96-well cell culture plate, 180 μL of the cell suspension was added at a density of 8.34×10^3 cells/mL. To peripheral wells of the 96-well plate, only 180 μL of complete medium was added.
as §2, §3

MDA-MB-436 cells = details: MDA-MB-436, 144 h; inhibition of proliferation, human breast cancer cells, 6 days incubation
Source text: as §1
as §4, with “MDA-MB-436” for “DLD1^BRCA2−/−”, “a Leibovitz's L-15” for “an RPMI-1640”, “FBS, 10 μg/mL insulin, and 16 µg/mL glutathione,” for “FBS,”, “1:3” for “1:6”, “1:5.” for “1:8.”
as §2, §3

Row | Structure (SMILES) | IC50 (DLD1 cells) | IC50 (DLD1^BRCA2−/− cells) | IC50 (MDA-MB-436 cells)
1 | CCc1cc2ncc(CN3CCN4c5ccc(C(=O)NC)nc5OCC4C3)cc2[nH]c1=O (racemic) [Example 1, (±)-3-((7-Ethyl-6-oxo-5,6-dihydro-1,5-naphthyridin-3-yl)methyl)-N-methyl-1,2,3,4,4a,5-hexahydropyrazino[1,2-d]pyrido[2,3-b][1,4]oxazine-8-carboxamide] | > 1000 nM | 7.9 nM | 5.8 nM
2 | CCc1cc2ncc(CN3CCN4c5ccc(C(=O)NC)nc5COCC4C3)cc2[nH]c1=O (racemic) [Example 3, (±)-3-((7-Ethyl-6-oxo-5,6-dihydro-1,5-naphthyridin-3-yl)methyl)-N-methyl-1,2,3,4,4a,5-hexahydro-7H-pyrazino[2,1-c]pyrido[3,2-e][1,4]oxazepine-9-carboxamide] | > 250 nM | 5.8 nM | 1.1 nM
3 | CCc1cc2ncc(CN3CCN4c5ccc(C(=O)NC)nc5NCC4C3)cc2[nH]c1=O (racemic) [Example 6, (±)-3-((7-Ethyl-6-oxo-5,6-dihydro-1,5-naphthyridin-3-yl)methyl)-N-methyl-2,3,4,4a,5,6-hexahydro-1H-pyrazino[1,2-a]pyrido[2,3-e]pyrazine-8-carboxamide] | > 1000 nM | – | 41.8 nM
4 | CCc1cc2ncc(CN3CCN4c5ccc(C(=O)NC)nc5N(C)CC4C3)cc2[nH]c1=O (racemic) [Example 7, (±)-3-((7-Ethyl-6-oxo-5,6-dihydro-1,5-naphthyridin-3-yl)methyl)-N,6-dimethyl-2,3,4,4a,5,6-hexahydro-1H-pyrazino[1,2-a]pyrido[2,3-e]pyrazine-8-carboxamide] | > 1000 nM | – | 18.7 nM
5 | CCc1cc2ncc(CN3CCN4c5ccc(C(=O)NC)nc5OC[C@H]4C3)cc2[nH]c1=O [Example 2, (R)-3-((7-Ethyl-6-oxo-5,6-dihydro-1,5-naphthyridin-3-yl)methyl)-N-methyl-1,2,3,4,4a,5-hexahydropyrazino[1,2-d]pyrido[2,3-b][1,4]oxazine-8-carboxamide] | > 250 nM | 2.5 nM | 1 nM
6 | CCc1cc2ncc(CN3CCN4c5ccc(C(=O)NC)nc5COC[C@H]4C3)cc2[nH]c1=O [Example 8, (R)-3-((7-Ethyl-6-oxo-5,6-dihydro-1,5-naphthyridin-3-yl)methyl)-N-methyl-1,2,3,4,4a,5-hexahydro-7H-pyrazino[2,1-c]pyrido[3,2-e][1,4]oxazepine-9-carboxamide] | > 1000 nM | 7.84 nM | 1.2 nM
